Measured values from the Kinase Knowledgebase extract (Sharma et al. 2016).

What follows are molecules tested against EGFR (human) (UniProt P00533). Conditions: kb.
Chain of EGFR (human) (P00533 whole entry, looked up): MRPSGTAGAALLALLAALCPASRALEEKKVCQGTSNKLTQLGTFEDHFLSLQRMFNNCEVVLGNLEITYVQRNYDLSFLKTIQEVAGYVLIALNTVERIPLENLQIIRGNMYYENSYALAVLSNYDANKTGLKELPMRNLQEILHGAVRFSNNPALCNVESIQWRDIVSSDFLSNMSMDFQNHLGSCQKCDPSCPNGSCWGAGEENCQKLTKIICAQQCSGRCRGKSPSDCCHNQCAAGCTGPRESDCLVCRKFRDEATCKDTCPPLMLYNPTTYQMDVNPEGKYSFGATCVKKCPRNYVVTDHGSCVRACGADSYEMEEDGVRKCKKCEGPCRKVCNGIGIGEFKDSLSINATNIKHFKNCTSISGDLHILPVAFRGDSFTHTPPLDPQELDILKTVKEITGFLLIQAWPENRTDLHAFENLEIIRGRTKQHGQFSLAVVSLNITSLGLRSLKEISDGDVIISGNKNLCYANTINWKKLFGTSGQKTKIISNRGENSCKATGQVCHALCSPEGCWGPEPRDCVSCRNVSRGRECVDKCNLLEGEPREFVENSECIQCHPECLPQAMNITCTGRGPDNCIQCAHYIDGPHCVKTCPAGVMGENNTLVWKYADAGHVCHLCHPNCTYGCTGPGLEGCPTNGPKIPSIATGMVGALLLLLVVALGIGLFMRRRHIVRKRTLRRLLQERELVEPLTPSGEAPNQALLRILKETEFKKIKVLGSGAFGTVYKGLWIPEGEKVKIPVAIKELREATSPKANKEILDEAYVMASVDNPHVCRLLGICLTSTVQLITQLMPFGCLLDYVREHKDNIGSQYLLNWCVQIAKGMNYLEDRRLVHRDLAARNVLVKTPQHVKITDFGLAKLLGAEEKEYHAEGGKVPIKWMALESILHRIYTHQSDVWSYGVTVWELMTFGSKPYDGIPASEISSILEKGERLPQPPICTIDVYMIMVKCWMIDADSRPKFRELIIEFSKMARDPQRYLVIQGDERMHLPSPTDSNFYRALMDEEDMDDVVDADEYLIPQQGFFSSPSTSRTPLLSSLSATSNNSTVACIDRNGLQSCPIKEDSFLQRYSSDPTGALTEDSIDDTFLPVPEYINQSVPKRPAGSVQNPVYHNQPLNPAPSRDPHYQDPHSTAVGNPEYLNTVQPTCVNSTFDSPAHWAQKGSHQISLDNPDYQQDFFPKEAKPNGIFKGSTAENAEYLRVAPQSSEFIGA

| IC50 [nM] | SMILES |
| --- | --- |
| 112 | COc1cc(OC[C@@H]2C[C@H](O)CN2C(=O)CN(C)C)c2c(Nc3ccc(F)c(Cl)c3)ncnc2c1 |
| 130 | COc1cc(OC[C@@H]2CCCN2C(=O)CN2CCCC2)c2c(Nc3ccc(F)c(Cl)c3)ncnc2c1 |
| 288 | COCC(=O)N1C[C@@H](O)C[C@@H]1COc1cc(OC)cc2ncnc(Nc3ccc(F)c(Cl)c3)c12 |
| 138 | COc1cc(OC[C@H]2CCCN2C(=O)CN(C)C)c2c(Nc3ccc(F)c(Cl)c3)ncnc2c1 |
| 141 | COc1cc(OC[C@@H]2CCCN2C(=O)CN(C)C)c2c(Nc3ccc(F)c(Cl)c3)ncnc2c1 |
| 118 | COc1cc(OC[C@H]2C[C@@H](O)CN2C(=O)CO)c2c(Nc3ccc(F)c(Cl)c3)ncnc2c1 |
| 75 | COc1cc(OC[C@H]2C[C@H](O)CN2C(C)=O)c2c(Nc3ccc(F)c(Cl)c3)ncnc2c1 |
| 99 | CCOCCOc1cc(OC[C@H]2CCCN2C(=O)CO)c2c(Nc3ccc(F)c(Cl)c3)ncnc2c1 |
| 156 | COc1cc(OC[C@@H]2C[C@@H](O)CN2C(=O)CO)c2c(Nc3ccc(F)c(Cl)c3)ncnc2c1 |
| 91 | COc1cc(OC[C@H]2CCCN2C(=O)CO)c2c(Nc3ccc(F)c(Cl)c3)ncnc2c1 |
| 128 | O=C(CO)N1CCC[C@@H]1COc1cc(OCCO)cc2ncnc(Nc3ccc(F)c(Cl)c3)c12 |
| 28 | COc1cc(OC[C@H]2CCCN2C(C)=O)c2c(Nc3ccc(F)c(Cl)c3)ncnc2c1 |
